Legend:
[1] = tested on: retinal endothelial cells; assay: Retinal endothelial labeling after intravitreal / intraocular injection; type: in vivo, mouse; details: intravitreal/intraocular injection (eEDiTS 50 μM in FIG. 14D)
[2] = tested on: cancer cells in freshly excised breast surgical tissue; assay: Injection into freshly excised cancerous breast tissue
Text: Injection of compound 1 into freshly excised cancerous breast tissue leads to rapid entry into cancer cells (red). Blue represents nuclear labeling with Hoechst dye.

Slco1a4 = target: T1, Slco1a4 (Mus musculus, UniProt Q9EP96); assay: Uptake by cells ectopically expressing Slco1a4 (in utero electroporation) in live mice; type: in vivo; parameters: FLAG; expressed in transfected cells; host or cells: cortical neurons of live mice, in utero electroporation at E14/E15; details: topical cortical administration (50 μM where stated)
T1 sequence (Q9EP96 1-670): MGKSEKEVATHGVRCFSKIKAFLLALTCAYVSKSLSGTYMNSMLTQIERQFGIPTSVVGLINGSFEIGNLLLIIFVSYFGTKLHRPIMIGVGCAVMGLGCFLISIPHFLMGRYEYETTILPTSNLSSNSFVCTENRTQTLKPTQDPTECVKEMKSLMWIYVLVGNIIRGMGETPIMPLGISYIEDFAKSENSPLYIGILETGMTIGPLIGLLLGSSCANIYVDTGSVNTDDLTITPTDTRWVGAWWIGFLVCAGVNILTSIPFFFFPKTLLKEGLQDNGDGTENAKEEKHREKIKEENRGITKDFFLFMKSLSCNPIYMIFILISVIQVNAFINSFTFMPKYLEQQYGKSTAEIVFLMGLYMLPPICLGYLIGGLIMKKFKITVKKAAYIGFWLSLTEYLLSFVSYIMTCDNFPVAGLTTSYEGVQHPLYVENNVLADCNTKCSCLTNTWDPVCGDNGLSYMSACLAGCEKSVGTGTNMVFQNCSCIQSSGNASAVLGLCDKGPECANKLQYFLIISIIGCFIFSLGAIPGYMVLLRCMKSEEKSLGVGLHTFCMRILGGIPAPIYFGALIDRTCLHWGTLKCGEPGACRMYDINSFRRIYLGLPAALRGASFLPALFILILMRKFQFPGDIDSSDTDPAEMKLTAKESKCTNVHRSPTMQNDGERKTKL
Experimental: IUE is performed at E14 or E15 as previously done. Briefly, timed pregnant mice are anaesthetized with ketamine/xylazine. The abdominal region is shaved, sterilized and a 3 cm midline incision is made in the skin and abdominal muscle. The uterine horns are exposed, and the lateral ventricle of each embryo is pressure injected (Picospritzer II, General Valve) with plasmid DNA (~[…] volume per embryo) at a concentration of […] followed by electroporation with tweezertrodes (50 V, 4-50 ms pulses with I s pulse interval. BTX Harvard Apparatus). The embryos are placed back in the mother womb, and the muscle and skin are sutured. Electroporated pups are aged to postnatal day 30. Imaging is performed through a craniotomy over the transfected hemisphere following dye labeling.
Briefly, animals are anaesthetized via intraperitoneal injections of ketamine/xylazine or via inhaled isoflurane. A region of the skull (3×3 mm) is gently removed with a high-speed drill and the underlying dura is removed. A small glass coverslip is placed over the skull to allow long term optical access for in vivo imaging. […]
One-month-old wild-type mice were anesthetized using a ketamine/xylazine solution at doses of 100 mg/kg and 10 mg/kg, respectively. […] Mice were kept on a heating pad at 37° C., and anesthesia was periodically monitored. […]

[3] = Assessment of in vivo compound toxicity (fur regrowth, body weight); parameters: species or system mouse; details: intradermal injection (fur regrowth) and daily intraperitoneal injection for 5 days (body weight)
Experimental: To evaluate systemic toxicity, mouse weight was monitored daily, focusing on P20 mice in their active growth stage. For local toxicity assessment, the mouse fur was shaved to stimulate follicular stem cell division and subsequent hair regrowth. Compounds were injected intradermally on the right lower back quadrant and the left quadrant was used as a control. Hair regrowth was monitored for 12 days with serial photography followed by quantification using NIH Image J Plot Profile Plug-In, yielding pixel intensity profiles. Changes in pixel intensity where compared between injected (right quadrant) versus noninjected (left quadrant) by using the following formula:
(Noninjected intensity−Injected intensity)/Noninjected intensity×100%. (Eq. 1)

NIH3T3 cells = assay: Assessment of pharmacological effects in vitro in NIH3T3 cells (tubulin staining, multinucleated cells); type: cell-based
Text: Confocal microscopy of the different treatment groups allowed us to visualize Hoechst dye-labeled nuclei to quantify the proportion of cells with multinucleated phenotype which is known to occur with Colchicine treatments.

For `O=S(=O)([O-])c1cc(S(=O)(=O)O)ccc1C1=c2cc3c4c(c2Oc2cc(Br)ccc21)CCC[N+]=4CCC3` [Compound 1, 2-(12-bromo-1,2,3,5,6,7-hexahydrochromeno[2,3-f]pyrido[3,2,1-ij]quinolin-4-ium-9-yl)-5-sulfobenzenesulfonate], the retinal endothelial labeling [1] was “rapid and highly specific labeling of retinal vasculature”, the “entry into breast cancer cells” value [2] was “readily enters cancer cells” and the “uptake by neurons ectopically expressing Slco1a4” value (Slco1a4) was “only those cells that express SLCO1A2 or SLCO1A4 (as evidenced by the GFP fluorescence (green)) take up compound 1”.
For `COc1cc2c(c(OC)c1OC)-c1ccc(OC)c(=O)cc1C(NS(=O)(=O)c1ccc(-c3c4ccc(N(C)C)cc4[o+]c4cc(N(C)C)ccc34)c(S(=O)(=O)[O-])c1)CC2` (centres unmarked) [Compound 47, 2-(3,6-bis(dimethylamino)xanthylium-9-yl)-5-(N-(1,2,3,10-tetramethoxy-9-oxo-5,6,7,9-tetrahydrobenzo[a]heptalen-7-yl)sulfamoyl)benzenesulfonate], the “local and systemic toxicity” value [3] was “markedly reduced local and systemic toxicity”, the “preservation of pharmacological properties after conjugation” value (NIH3T3 cells; NIH3T3 cells) was “retains its pharmacological properties” and the “cell morphology / multinucleated cells” value (NIH3T3 cells; NIH3T3 cells (FIG. 17A)) was “changes in cell morphology and presence of multinucleated cells”. For the same molecule, the “pattern of α-tubulin immunofluorescence” value (NIH3T3 cells; NIH3T3 cells, 12 hours, varying concentrations (FIG. 17A)) was “diffuse labeling pattern” and the “uptake by neurons ectopically expressing Slco1a4” value (Slco1a4) was “marked uptake”.
